Results reported in patent US11641858B2, “Agricultural chemicals” (Redag Crop Protection Ltd, priority 2016, dated 2023).
Read-outs that look alike come from different tables or passages of the source.

Key:
Phytophthora cinnamomi = test: Amended agar assay (potato dextrose agar), reduction in colony growth; type: cell-based; details: for inhibition of growth at 20 ppm / control over the fungal pathogens tested (in words): primary screen at 20 ppm; for inhibition of growth at 20 ppm: read-out: % control at 20 ppm; for EC50: read-out: Phytophthora cinnamomi (EC50)
Procedure: (§1) Testing was carried out on potato dextrose agar (PDA) amended with each compound at test concentrations of 20, 4 and 0.8, 0.16 and 0.032 ppm. Amended agar at each test concentration was poured into three replicate 9 cm petri dishes. Each replicate dish was inoculated in the centre with a 5 mm agar plug taken from the leading edge of a culture aged between 2 and 7 days old; the age of the culture was dependant on the growth rate of the pathogen being tested. The test pathogens were Pythium ultimum and Phytophthora cinnamomi. Plates were incubated at 18° C. and the diameter of each colony measured before growth on the fastest growing plate reached the plate edge. This varied between 2 and 7 days depending on the growth rate of test pathogens. The % reduction in colony growth compared to the control was calculated for each test concentration and pathogen combination.
(§2) The results are shown in Table 1 in which * represents an average control of up to 50% at said dosage; ** represents an average control of 50% or greater but less than 80% at said dosage; and *** represents an average control of 80% or greater at said dosage.
(§3) A primary screen was also conducted for a number of other compounds of the invention. The screen was conducted at 20 ppm and the results are provided in Table 2, in which D represents no control detected at this concentration; C represents up to 50% control; B from 50 to 99% control; and A represents a control of greater than 99%.
(§4) Alternatively, or in addition, the same assay was conducted at descending test concentrations with 5-fold dilutions typically down to 0.032 ppm, and an EC50 (the concentration at which 50% control would be achieved) was determined. The results are provided in Table 1 in which G represents an EC50 above 20 ppm, F represents an EC50 of 2-20 ppm and E represents and EC50 less than 2 ppm.

Pythium ultimum = test: as above; type: cell-based; details: for inhibition of growth at 20 ppm / EC50: Globisporangium ultimum; for inhibition of growth at 20 ppm / control over the fungal pathogens tested (in words): primary screen at 20 ppm; for inhibition of growth at 20 ppm: read-out: % control at 20 ppm; for EC50: read-out: Pythium ultimum (EC50)
Procedure: as §1, §2, §3, §4

[1] = Pythium ultimum, dose 0.032 ppm in amended agar
[2] = Pythium ultimum, dose 0.16 ppm in amended agar
[3] = Pythium ultimum, dose 0.8 ppm in amended agar
[4] = Pythium ultimum, dose 4 ppm in amended agar
[5] = Pythium ultimum, dose 20 ppm in amended agar
[6] = descending test concentrations, 5-fold dilutions typically down to 0.032 ppm

| Compound | inhibition of growth at 20 ppm (Phytophthora cinnamomi) | inhibition of growth at 20 ppm (Pythium ultimum; Pythium ultimum) | EC50 (Phytophthora cinnamomi; [6]) | EC50 (Pythium ultimum; [6]) | further results |
| --- | --- | --- | --- | --- | --- |
| Cn1nnnc1C(=NOCc1cccc(NC(=O)C(F)(F)Oc2ccccc2)n1)c1ccccc1 [A, reference compound] | > 99% | > 99% |  |  | average % control at given dosage (Phytophthora cinnamomi; dose 0.032 ppm in amended agar): *** (an average control of 80% or greater at said dosage); average % control at given dosage (Phytophthora cinnamomi; dose 0.16 ppm in amended agar): *** (an average control of 80% or greater at said dosage); average % control at given dosage (Phytophthora cinnamomi; dose 0.8 ppm in amended agar): *** (an average control of 80% or greater at said dosage); average % control at given dosage (Phytophthora cinnamomi; dose 4 ppm in amended agar): *** (an average control of 80% or greater at said dosage); average % control at given dosage (Phytophthora cinnamomi; dose 20 ppm in amended agar): *** (an average control of 80% or greater at said dosage); average % control at given dosage (Pythium ultimum; [1]): *** (an average control of 80% or greater at said dosage); average % control at given dosage (Pythium ultimum; [2]): *** (an average control of 80% or greater at said dosage); average % control at given dosage (Pythium ultimum; [3]): *** (an average control of 80% or greater at said dosage); average % control at given dosage (Pythium ultimum; [4]): *** (an average control of 80% or greater at said dosage); average % control at given dosage (Pythium ultimum; [5]): *** (an average control of 80% or greater at said dosage) |
| Cn1nnnc1N(C(=O)OCc1cccc(NC(=O)C(F)(F)Oc2ccccc2)n1)c1ccccc1 [B, reference compound] |  |  |  |  | average % control at given dosage (Phytophthora cinnamomi; dose 0.032 ppm in amended agar): * (an average control of up to 50% at said dosage); average % control at given dosage (Phytophthora cinnamomi; dose 0.16 ppm in amended agar): ** (an average control of 50% or greater but less than 80% at said dosage); average % control at given dosage (Phytophthora cinnamomi; dose 0.8 ppm in amended agar): ** (an average control of 50% or greater but less than 80% at said dosage); average % control at given dosage (Phytophthora cinnamomi; dose 4 ppm in amended agar): ** (an average control of 50% or greater but less than 80% at said dosage); average % control at given dosage (Phytophthora cinnamomi; dose 20 ppm in amended agar): ** (an average control of 50% or greater but less than 80% at said dosage); average % control at given dosage (Pythium ultimum; [1]): * (an average control of up to 50% at said dosage); average % control at given dosage (Pythium ultimum; [2]): ** (an average control of 50% or greater but less than 80% at said dosage); average % control at given dosage (Pythium ultimum; [3]): ** (an average control of 50% or greater but less than 80% at said dosage); average % control at given dosage (Pythium ultimum; [4]): *** (an average control of 80% or greater at said dosage); average % control at given dosage (Pythium ultimum; [5]): *** (an average control of 80% or greater at said dosage) |
| Cn1nnnc1-n1c(OCc2cccc(NC(=O)C(F)(F)Oc3ccccc3)n2)nc2ccccc21 [Example 1, 2,2-Difluoro-N-(6-(((1-(1-methyl-1H-tetrazol-5-yl)-1H-benzo[d]imidazol-2-yl)oxy)methyl)pyridin-2-yl)-2-phenoxyacetamide] | > 99% | > 99% | < 2 µg/mL | < 2 µg/mL | control over the tested oomycete fungal plant pathogens (in words) (Phytophthora cinnamomi; Table 1 doses 0.032-20 ppm, even at low concentrations): excellent control; average % control at given dosage (Phytophthora cinnamomi; dose 0.032 ppm in amended agar): *** (an average control of 80% or greater at said dosage); average % control at given dosage (Phytophthora cinnamomi; dose 0.16 ppm in amended agar): *** (an average control of 80% or greater at said dosage); average % control at given dosage (Phytophthora cinnamomi; dose 0.8 ppm in amended agar): *** (an average control of 80% or greater at said dosage); average % control at given dosage (Phytophthora cinnamomi; dose 4 ppm in amended agar): *** (an average control of 80% or greater at said dosage); average % control at given dosage (Phytophthora cinnamomi; dose 20 ppm in amended agar): *** (an average control of 80% or greater at said dosage); control over the fungal pathogens tested (in words) (Phytophthora cinnamomi): excellent control; control over the tested oomycete fungal plant pathogens (in words) (Pythium ultimum; Pythium ultimum, Table 1 doses 0.032-20 ppm, even at low concentrations): excellent control; average % control at given dosage (Pythium ultimum; [1]): *** (an average control of 80% or greater at said dosage); average % control at given dosage (Pythium ultimum; [2]): *** (an average control of 80% or greater at said dosage); average % control at given dosage (Pythium ultimum; [3]): *** (an average control of 80% or greater at said dosage); average % control at given dosage (Pythium ultimum; [4]): *** (an average control of 80% or greater at said dosage); average % control at given dosage (Pythium ultimum; [5]): *** (an average control of 80% or greater at said dosage); control over the fungal pathogens tested (in words) (Pythium ultimum; Pythium ultimum): excellent control |
| Cn1nnnc1-n1c(OCc2cccc(NC(=O)OC(C)(C)C)n2)nc2ccccc21 [Example 2] | > 99% | > 99% | < 2 µg/mL | < 2 µg/mL | control over the fungal pathogens tested (in words) (Phytophthora cinnamomi): excellent control; control over the fungal pathogens tested (in words) (Pythium ultimum; Pythium ultimum): excellent control |
| Cc1cccnc1-n1c(OCc2cccc(NC(=O)C(F)(F)Oc3ccccc3)n2)nc2ccccc21 [Example 3] | 50 to 99% | 50 to 99% | < 2 µg/mL | < 2 µg/mL |  |
| Cn1nccc1-n1c(OCc2cccc(NC(=O)C(F)(F)Oc3ccccc3)n2)nc2ccccc21 [Example 4] | 50 to 99% | 50 to 99% | < 2 µg/mL | < 2 µg/mL |  |
| Cc1noc(-n2c(OCc3cccc(NC(=O)C(F)(F)Oc4ccccc4)n3)nc3ccccc32)c1C [Example 5, N-(6-(((1-(3,4-Dimethylisoxazol-5-yl)-1H-benzo[d]imidazol-2-yl)oxy)methyl)pyridin-2-yl)-2,2-difluoro-2-phenoxyacetamide] | < 50% | 50 to 99% |  |  |  |
| Cn1nnnc1-n1c(OCc2cccc(NC(=O)C(F)(F)Oc3ccccc3)n2)nc2ccc(F)cc21 [Example 6] | > 99% | > 99% | < 2 µg/mL | < 2 µg/mL | control over the fungal pathogens tested (in words) (Phytophthora cinnamomi): excellent control; control over the fungal pathogens tested (in words) (Pythium ultimum; Pythium ultimum): excellent control |
| O=C(Nc1cccc(COc2nc3ccccc3n2-c2ccccn2)n1)C(F)(F)Oc1ccccc1 [Example 7] |  |  | > 20 µg/mL | > 20 µg/mL |  |
| Cc1cc(-n2c(OCc3cccc(NC(=O)C(F)(F)Oc4ccccc4)n3)nc3ccccc32)sn1 [Example 8] |  | < 50% |  |  |  |
| O=C(Nc1cccc(COc2nc3ccccc3n2-c2ccon2)n1)C(F)(F)Oc1ccccc1 [Example 9] |  |  | > 20 µg/mL | > 20 µg/mL |  |
| CC(=O)Nc1cccc(COc2nc3ccccc3n2-c2nnnn2C)n1 [Example 10, N-(6-(((1-(1-Methyl-1H-tetrazol-5-yl)-1H-benzo[d]imidazol-2-yl)oxy)methyl)pyridin-2-yl)acetamide] | 50 to 99% | 45 to 55% |  |  |  |
| CCOC(=O)Nc1cccc(COc2nc3ccccc3n2-c2nnnn2C)n1 [Example 11, Ethyl (6-(((1-(1-methyl-1H-tetrazol-5-yl)-1H-benzo[d]imidazol-2-yl)oxy)methyl)pyridin-2-yl)carbamate] | 50 to 99% | > 99% | < 2 µg/mL | < 2 µg/mL | control over the fungal pathogens tested (in words) (Phytophthora cinnamomi): excellent control; control over the fungal pathogens tested (in words) (Pythium ultimum; Pythium ultimum): excellent control |
| Cn1nnnc1-n1c(OCc2cccc(NC(=O)OC3CCCC3)n2)nc2ccccc21 [Example 12] |  |  | < 2 µg/mL | < 2 µg/mL |  |
| CCCCOC(=O)Nc1cccc(COc2nc3ccccc3n2-c2nnnn2C)n1 [Example 13] |  |  | < 2 µg/mL | < 2 µg/mL |  |
| Cn1nnnc1-n1c(OCc2cccc(NC(=O)OCc3ccccc3)n2)nc2ccccc21 [Example 14] |  |  | < 2 µg/mL | < 2 µg/mL |  |
| Cn1nnnc1-n1c(OCc2cccc(NC(=O)Oc3ccccc3)n2)nc2ccccc21 [Example 15] |  |  |  |  | EC50 (Phytophthora cinnamomi): < 2 µg/mL; EC50 (Pythium ultimum): < 2 µg/mL |
| CCCCCOC(=O)Nc1cccc(COc2nc3ccccc3n2-c2nnnn2C)n1 [Example 16] |  |  | < 2 µg/mL | < 2 µg/mL |  |
| CC(C)OC(=O)Nc1cccc(COc2nc3ccccc3n2-c2nnnn2C)n1 [Example 17] |  |  | < 2 µg/mL | < 2 µg/mL |  |
| CC(C)COC(=O)Nc1cccc(COc2nc3ccccc3n2-c2nnnn2C)n1 [Example 18] |  |  | < 2 µg/mL | < 2 µg/mL |  |
| C=CCOC(=O)Nc1cccc(COc2nc3ccccc3n2-c2nnnn2C)n1 [Example 19] |  |  | < 2 µg/mL | < 2 µg/mL |  |
